From US8859574B2 (IRM LLC, priority 2008, dated 2014)

Target: T1, IGF-1R Ba/F3 (Homo sapiens, UniProt P08069)
T1 construct: fused on or other part: TEL- (or BCR-) IGF-1R in Ba/F3: the kinase part holds the site
Assay: Ba/F3 Cell Viability Inhibition Assay (IGF-1R Ba/F3)
Assay type: cell-based, murine
Conditions: Tel-TK transformed Ba/F3 cells, 48 hours, Britelite luminescence
Excerpt: The IC50 of a drug may be determined constructing a dose-response curve and examining the effect of different concentrations of antagonist on reversing agonist activity. IC50 values may be calculated for a given antagonist by determining the concentration needed to inhibit half of the maximum biological response of the agonist. To calculate IC50 values, a series of dose-response data (e.g., drug concentrations x1, x2, . . . , xn and growth inhibition y1, y2, . . . , yn, the values of y are in the range of 0-1) is generated. IC50 values may be determined by a computer-aided system using the formula: y=D+((A−D)/(1+10^(x-log(IC50)B) • where A is the ratio of growth inhibition between lowest drug concentration and control; B is the slope of sigmoidal curvel; and D is the ratio of growth inhibition between highest drug concentration and control.
Ba/F3 is a murine IL-3-dependent pro-B lymphoma cell line. Parental Ba/F3 cells are used to generate a panel of sublines whose proliferation and survival is rendered IL-3-independent by stable transduction with individual tyrosine kinases activated by fusion with the amino-terminal portion of TEL (amino acid 1-375) or BCR. In order to generate Ba/F3 cell lines transformed by Tel-Tyrosine Kinase (TK) fusions, parental Ba/F3 cells are infected with a retrovirus harboring each TEL-fusion kinase and subjected to puromycin selection and IL-3 withdrawal to obtain IL-3-independent, transformed Ba/F3 cells.
Each transformed Ba/F3 cells are cultured in RPMI-1640 media (Gibco Cat #11875093, Carlsbad, Calif.) supplemented with 10% FBS (Hyclone Cat #SV30014.03, Logan, Utah), 4.5 g/L glucose (Sigma #G5400, St. Louis, Mo.), 1.5 g/L sodium bicarbonate (Biowhittaker #17-613E, Walkersville, Md.) and Pen/Strep (Gibco #10378-016, Carlsbad, Calif.). Cells are splitted twice weekly.
The potency of test compounds against various Tel-TK transformed Ba/F3 lines is determined as follows. Exponentially growing BaF3 Tel-TK cells are diluted in fresh medium to 75,000 cells/mL and seeded into 384-well plates (3750 cells/well) at 50 μL/well using a μFill liquid dispenser (BioTek, Winooski, Vt., USA). Duplicate plates are run for each cell line. Test and control compounds are serially diluted with DMSO and arrayed in a polypropylene 384-well plate. […] of compound is transferred into the assay plates using a pin-transfer device, and the plates are incubated at 37° C. (5% CO2) for 48 hours. 25 μL Britelite (Perkin Elmer) is added and luminescence is quantified using Analyst GT (Molecular Devices). Custom curve-fitting software is used to produce a logistic fit of percent cell viability as a function of the logarithm of inhibitor concentration. The IC50 is interpolated as the concentration of compound needed to reduce cell viability to 50% of a DMSO control. Parental Ba/F3 cells that are maintained and cultured in presence of IL-3 (1 ng/ml in final) are diluted in fresh medium containing IL-3 (1 ng/ml in final) to 75,000 cells/mL following the same procedure as described above.

T1 sequence (P08069 999-1274 limits assumed): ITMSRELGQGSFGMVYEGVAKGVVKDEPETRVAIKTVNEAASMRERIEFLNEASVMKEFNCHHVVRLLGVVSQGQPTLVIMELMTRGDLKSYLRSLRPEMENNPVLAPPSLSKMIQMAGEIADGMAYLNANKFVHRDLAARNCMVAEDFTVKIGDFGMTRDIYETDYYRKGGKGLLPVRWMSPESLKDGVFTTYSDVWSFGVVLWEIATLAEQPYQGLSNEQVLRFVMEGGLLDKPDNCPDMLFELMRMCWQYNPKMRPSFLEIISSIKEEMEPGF

| Compound | IC50 [nM] |
| --- | --- |
| CNC(=O)C(C)N1CCC(c2cc(F)c(Nc3ncc(Cl)c(Nc4cc(C)[nH]n4)n3)cc2C)CC1 (stereo not drawn) [Compound 50, 2-(4-(4-(5-chloro-4-(5-methyl-1H-pyrazol-3-ylamino)pyrimidin-2-ylamino)-5-fluoro-2-methylphenyl)piperidin-1-yl)-N-methylpropanamide] | 22 |
| Cc1cc(Nc2nc(Nc3cc(C)c(C4CCN(C(C)C(N)=O)CC4)cc3C)ncc2Cl)n[nH]1 (stereo not drawn) [Compound 51, 2-(4-(4-(5-chloro-4-(5-methyl-1H-pyrazol-3-ylamino)pyrimidin-2-ylamino)-2,5-dimethylphenyl)piperidin-1-yl)propanamide] | 9 |
| CNC(=O)C(C)N1CCC(c2cc(C)c(Nc3ncc(Cl)c(Nc4cc(C)[nH]n4)n3)cc2C)CC1 (stereo not drawn) [Compound 52, 2-(4-(4-(5-chloro-4-(5-methyl-1H-pyrazol-3-ylamino)pyrimidin-2-ylamino)-2,5-dimethylphenyl)piperidin-1-yl)-N-methylpropanamide] | 6 |
| Cc1cc(Nc2nc(Nc3cc(C)c(C4CCN(C(C)C(N)=O)CC4)cc3F)ncc2C(F)(F)F)n[nH]1 (stereo not drawn) [Compound 53, 2-(4-(5-fluoro-2-methyl-4-(4-(5-methyl-1H-pyrazol-3-ylamino)-5-(trifluoromethyl)pyrimidin-2-ylamino)phenyl)piperidin-1-yl)propanamide] | 78 |
| Cc1cc(Nc2nc(Nc3cc(C)c(C4CCN(C(C)C(=O)O)CC4)cc3F)ncc2Cl)n[nH]1 (stereo not drawn) [Compound 54, 2-(4-(4-(5-chloro-4-(5-methyl-1H-pyrazol-3-ylamino)pyrimidin-2-ylamino)-5-fluoro-2-methylphenyl)piperidin-1-yl)propanoic acid] | 1530 |
| Cc1cc(Nc2nc(Nc3cc(C)c(C4CCN(CCS(C)(=O)=O)CC4)cc3F)ncc2Cl)n[nH]1 [Compound 55, 5-Chloro-N2-(2-fluoro-5-methyl-4-(1-(2-(methylsulfonyl)ethyl)piperidin-4-yl)phenyl)-N4-(5-methyl-1H-pyrazol-3-yl)pyrimidine-2,4-diamine] | 24 |
| Cc1cc(Nc2nc(Nc3cc(C)c(C4CCN(CCS(C)(=O)=O)CC4)cc3C)ncc2Cl)n[nH]1 [Compound 56, 5-chloro-N2-(2,5-dimethyl-4-(1-(2-(methylsulfonyl)ethyl)piperidin-4-yl)phenyl)-N4-(5-methyl-1H-pyrazol-3-yl)pyrimidine-2,4-diamine] | 6 |
| CCS(=O)(=O)CCN1CCC(c2cc(F)c(Nc3ncc(Cl)c(Nc4cc(C)[nH]n4)n3)cc2C)CC1 [Compound 57, 5-chloro-N2-(4-(1-(2-(ethylsulfonyl)ethyl)piperidin-4-yl)-2-fluoro-5-methylphenyl)-N4-(5-methyl-1H-pyrazol-3-yl)pyrimidine-2,4-diamine] | 21 |
| Cc1cc(Nc2nc(Nc3cc(C)c(C4CCN(CCS(=O)(=O)N(C)C)CC4)cc3F)ncc2Cl)n[nH]1 [Compound 58, 2-(4-(4-(5-chloro-4-(5-methyl-1H-pyrazol-3-ylamino)pyrimidin-2-ylamino)-5-fluoro-2-methylphenyl)piperidin-1-yl)-N,N-dimethylethanesulfonamide] | 36 |
| Cc1cc(Nc2nc(Nc3cc(C)c(C4CCN(CCS(N)(=O)=O)CC4)cc3F)ncc2Cl)n[nH]1 [Compound 59, 2-(4-(4-(5-chloro-4-(5-methyl-1H-pyrazol-3-ylamino)pyrimidin-2-ylamino)-5-fluoro-2-methylphenyl)piperidin-1-yl)ethanesulfonamide] | 38 |
| Cc1cc(Nc2nc(Nc3cc(Cl)c(C4CCN(CCS(=O)(=O)N5CCC5)CC4)cc3C)ncc2Cl)n[nH]1 [Compound 60, N2-(4-(1-(2-(azetidin-1-ylsulfonyl)ethyl)piperidin-4-yl)-5-chloro-2-methylphenyl)-5-chloro-N4-(5-methyl-1H-pyrazol-3-yl)pyrimidine-2,4-diamine] | 11 |
| Cc1cc(Nc2nc(Nc3cc(C)c(C4CCN(CCS(=O)(=O)N5CCC5)CC4)cc3F)ncc2Cl)n[nH]1 [Compound 61, N2-(4-(1-(2-(azetidin-1-ylsulfonyl)ethyl)piperidin-4-yl)-2-fluoro-5-methylphenyl)-5-chloro-N4-(5-methyl-1H-pyrazol-3-yl)pyrimidine-2,4-diamine] | 56 |
| Cc1cc(Nc2nc(Nc3cc(C)c(C4CCN(S(C)(=O)=O)CC4)cc3F)ncc2Cl)n[nH]1 [Compound 62, 5-Chloro-N2-(2-fluoro-5-methyl-4-(1-(methylsulfonyl)piperidin-4-yl)phenyl)-N4-(5-methyl-1H-pyrazol-3-yl)pyrimidine-2,4-diamine] | 5 |
| Cc1cc(Nc2nc(Nc3cc(C)c(C4CCN(S(C)(=O)=O)CC4)cc3C)ncc2Cl)n[nH]1 [Compound 63, 5-chloro-N2-(2,5-dimethyl-4-(1-(methylsulfonyl)piperidin-4-yl)phenyl)-N4-(5-methyl-1H-pyrazol-3-yl)pyrimidine-2,4-diamine] | 2 |
| Cc1cc(Nc2nc(Nc3cc(C)c(C4CCN(S(=O)(=O)C5CC5)CC4)cc3F)ncc2Cl)n[nH]1 [Compound 64, 5-chloro-N2-(4-(1-(cyclopropylsulfonyl)piperidin-4-yl)-2-fluoro-5-methylphenyl)-N4-(5-methyl-1H-pyrazol-3-yl)pyrimidine-2,4-diamine] | 59 |
| Cc1cc(Nc2nc(Nc3cc(C)c(C4CCN(S(=O)(=O)c5cccnc5)CC4)cc3F)ncc2Cl)n[nH]1 [Compound 65, 5-chloro-N2-(2-fluoro-5-methyl-4-(1-(pyridin-3-ylsulfonyl)piperidin-4-yl)phenyl)-N4-(5-methyl-1H-pyrazol-3-yl)pyrimidine-2,4-diamine] | 76 |
| CCOC(=O)N1CCC(c2cc(F)c(Nc3ncc(Cl)c(Nc4cc(C)[nH]n4)n3)cc2C)CC1 [Compound 66, Ethyl 4-(4-(5-chloro-4-(5-methyl-1H-pyrazol-3-ylamino)pyrimidin-2-ylamino)-5-fluoro-2-methylphenyl)piperidine-1-carboxylate] | 64 |
| CCOC(=O)N1CCC(c2cc(C)c(Nc3ncc(Cl)c(Nc4cc(C)[nH]n4)n3)cc2Cl)CC1 [Compound 67, ethyl 4-(2-chloro-4-(5-chloro-4-(5-methyl-1H-pyrazol-3-ylamino)pyrimidin-2-ylamino)-5-methylphenyl)piperidine-1-carboxylate] | 182 |
| Cc1cc(Nc2nc(Nc3cc(C)c(C4CCN(C(=O)OC(C)C)CC4)cc3F)ncc2Cl)n[nH]1 [Compound 68, isopropyl 4-(4-(5-chloro-4-(5-methyl-1H-pyrazol-3-ylamino)pyrimidin-2-ylamino)-5-fluoro-2-methylphenyl)piperidine-1-carboxylate] | 80 |
| Cc1cc(Nc2nc(Nc3cc(C)c(C4CCN(C(=O)N(C)C)CC4)cc3F)ncc2Cl)n[nH]1 [Compound 69, 4-(4-(5-Chloro-4-(5-methyl-1H-pyrazol-3-ylamino)pyrimidin-2-ylamino)-5-fluoro-2-methylphenyl)-N,N-dimethylpiperidine-1-carboxamide] | 11 |
| Cc1cc(Nc2nc(Nc3cc(C)c(C4CCN(C(=O)N(C)C)CC4)cc3C)ncc2Cl)n[nH]1 [Compound 70, 4-(4-(5-chloro-4-(5-methyl-1H-pyrazol-3-ylamino)pyrimidin-2-ylamino)-2,5-dimethylphenyl)-N,N-dimethylpiperidine-1-carboxamide] | 6 |
| CCNC(=O)N1CCC(c2cc(C)c(Nc3ncc(Cl)c(Nc4cc(C)[nH]n4)n3)cc2C)CC1 [Compound 71, 4-(4-(5-chloro-4-(5-methyl-1H-pyrazol-3-ylamino)pyrimidin-2-ylamino)-2,5-dimethylphenyl)-N-ethylpiperidine-1-carboxamide] | 2 |
| Cc1cc(Nc2nc(Nc3cc(C)c(C4CCN(C(N)=O)CC4)cc3C)ncc2Cl)n[nH]1 [Compound 72, 4-(4-(5-chloro-4-(5-methyl-1H-pyrazol-3-ylamino)pyrimidin-2-ylamino)-2,5-dimethylphenyl)piperidine-1-carboxamide] | 6 |
| Cc1cc(Nc2nc(Nc3cc(C)c(C4CCN(C(=O)CN(C)C)CC4)cc3F)ncc2Cl)n[nH]1 [Compound 73, 1-(4-(4-(5-chloro-4-(5-methyl-1H-pyrazol-3-ylamino)pyrimidin-2-ylamino)-5-fluoro-2-methylphenyl)piperidin-1-yl)-2-(dimethylamino)ethanone] | 19 |
